Test results: ChEMBL document CHEMBL1201862, “PubChem BioAssay data set” (2004)
Active and inactive are the calls of the source.

Tests used:
[1] = biological target: Heat shock cognate 71 kDa protein (Homo sapiens, UniProt P11142); assay: In Vitro Hsc70 Dose Response Fluorescence Polarization Assay. [Related pubchem assays: 1072 ]
[2] = biological target: Heat shock 70 kDa protein 1A (Homo sapiens, UniProt P0DMV8); assay: inhibition of Hsp70 binding activity – biochemical, fluorescence polarization, SAR follow-up (AID 1072)
Chain of Heat shock 70 kDa protein 1A (P0DMV8 whole entry): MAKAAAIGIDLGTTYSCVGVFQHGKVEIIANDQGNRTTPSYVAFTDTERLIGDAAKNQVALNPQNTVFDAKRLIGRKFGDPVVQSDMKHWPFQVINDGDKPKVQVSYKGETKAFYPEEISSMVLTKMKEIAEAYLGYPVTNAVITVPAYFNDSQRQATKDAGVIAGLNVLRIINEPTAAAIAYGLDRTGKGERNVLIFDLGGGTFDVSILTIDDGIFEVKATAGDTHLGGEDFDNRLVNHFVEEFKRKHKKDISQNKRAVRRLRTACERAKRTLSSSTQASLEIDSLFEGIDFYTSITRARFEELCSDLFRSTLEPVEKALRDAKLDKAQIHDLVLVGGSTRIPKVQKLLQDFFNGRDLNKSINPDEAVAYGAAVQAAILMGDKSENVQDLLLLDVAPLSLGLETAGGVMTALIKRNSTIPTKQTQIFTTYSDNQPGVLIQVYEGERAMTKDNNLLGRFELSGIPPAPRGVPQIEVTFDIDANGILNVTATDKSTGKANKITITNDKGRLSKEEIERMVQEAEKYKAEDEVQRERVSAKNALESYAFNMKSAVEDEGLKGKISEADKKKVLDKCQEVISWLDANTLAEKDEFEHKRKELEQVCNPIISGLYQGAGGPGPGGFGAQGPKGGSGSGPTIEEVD

[3] = biological target: T1, Neuropeptides B/W receptor type 1 (Homo sapiens, UniProt P48145); assay: Fluorescence-based dose response cell-based high throughput screening assay to identify antagonists of the G-protein coupled receptor 7 (GPR7). [Related pubchem assays: 1952 (Screening assay (GPR7 antagonists).), 1880 (Summary AID.)]; assay type: functional
T1 sequence (P48145 whole entry): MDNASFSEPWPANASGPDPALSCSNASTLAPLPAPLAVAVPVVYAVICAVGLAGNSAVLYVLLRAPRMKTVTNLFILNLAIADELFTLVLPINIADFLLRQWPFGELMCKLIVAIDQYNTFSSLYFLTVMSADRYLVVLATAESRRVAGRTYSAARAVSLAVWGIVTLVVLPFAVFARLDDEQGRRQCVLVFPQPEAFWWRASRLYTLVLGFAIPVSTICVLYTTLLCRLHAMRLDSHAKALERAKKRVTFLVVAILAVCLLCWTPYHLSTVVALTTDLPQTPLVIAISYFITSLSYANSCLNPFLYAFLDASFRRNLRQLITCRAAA

[4] = biological target: T2, Melanin-concentrating hormone receptor 1 (Homo sapiens, UniProt Q99705); assay: Fluorescence-based counterscreen for antagonists of the G-protein coupled receptor 7 (GPR7): cell-based high throughput dose response assay to identify antagonists of the melanin-concentrating hormone receptor 1 (MCHR1).; assay type: functional
T2 sequence (Q99705 whole entry): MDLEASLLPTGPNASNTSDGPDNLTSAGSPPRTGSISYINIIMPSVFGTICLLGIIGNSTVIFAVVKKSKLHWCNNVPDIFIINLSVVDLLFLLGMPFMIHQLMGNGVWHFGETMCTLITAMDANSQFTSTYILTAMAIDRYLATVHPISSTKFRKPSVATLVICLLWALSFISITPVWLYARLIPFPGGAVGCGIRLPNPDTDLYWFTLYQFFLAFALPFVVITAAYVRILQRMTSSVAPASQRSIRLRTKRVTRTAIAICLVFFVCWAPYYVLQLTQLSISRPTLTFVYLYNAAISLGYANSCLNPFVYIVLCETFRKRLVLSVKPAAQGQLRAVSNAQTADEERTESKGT

[5] = biological target: T3, Alkaline phosphatase, tissue-nonspecific isozyme (Homo sapiens, UniProt P05186)
T3 sequence (P05186 whole entry): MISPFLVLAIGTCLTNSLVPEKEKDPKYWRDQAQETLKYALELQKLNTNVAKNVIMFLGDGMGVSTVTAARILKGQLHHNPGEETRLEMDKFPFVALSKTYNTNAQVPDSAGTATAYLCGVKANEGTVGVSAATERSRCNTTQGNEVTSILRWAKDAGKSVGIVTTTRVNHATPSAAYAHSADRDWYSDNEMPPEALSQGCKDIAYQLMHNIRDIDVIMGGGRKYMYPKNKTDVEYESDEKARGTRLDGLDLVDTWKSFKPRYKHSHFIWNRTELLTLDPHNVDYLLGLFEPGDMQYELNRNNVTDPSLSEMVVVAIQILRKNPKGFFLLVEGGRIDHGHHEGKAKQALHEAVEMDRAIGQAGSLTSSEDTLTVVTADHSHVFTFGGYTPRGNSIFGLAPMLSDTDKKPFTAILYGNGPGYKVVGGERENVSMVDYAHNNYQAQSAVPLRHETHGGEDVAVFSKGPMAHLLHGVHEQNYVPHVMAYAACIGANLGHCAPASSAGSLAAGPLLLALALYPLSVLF

Nonstructural protein 1 = Nonstructural protein 1 (Influenza A virus, UniProt Q194T2); assay type: functional, Influenza A virus (A/California/07/2009(H1N1))
Chain of Nonstructural protein 1 (Q194T2 whole entry): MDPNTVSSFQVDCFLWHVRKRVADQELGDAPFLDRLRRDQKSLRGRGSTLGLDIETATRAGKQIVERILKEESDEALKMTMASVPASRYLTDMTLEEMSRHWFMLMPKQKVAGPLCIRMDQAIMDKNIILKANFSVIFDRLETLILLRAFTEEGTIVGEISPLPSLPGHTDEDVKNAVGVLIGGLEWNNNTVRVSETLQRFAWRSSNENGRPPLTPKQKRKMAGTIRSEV

[6] = biological target: T2, Melanin-concentrating hormone receptor 1; assay: Late-stage fluorescence-based counterscreen for antagonists of the G-protein coupled receptor 7 (GPR7): cell-based dose response assay to identify antagonists of the melanin-concentrating hormone receptor 1 (MCHR1). [Related pubchem assays (depositor defined):AID1861, AID1880, AID1952, AID2148, AID2251, AID2257, AID485339]; assay type: functional

Chain of Heat shock cognate 71 kDa protein (P11142 whole entry): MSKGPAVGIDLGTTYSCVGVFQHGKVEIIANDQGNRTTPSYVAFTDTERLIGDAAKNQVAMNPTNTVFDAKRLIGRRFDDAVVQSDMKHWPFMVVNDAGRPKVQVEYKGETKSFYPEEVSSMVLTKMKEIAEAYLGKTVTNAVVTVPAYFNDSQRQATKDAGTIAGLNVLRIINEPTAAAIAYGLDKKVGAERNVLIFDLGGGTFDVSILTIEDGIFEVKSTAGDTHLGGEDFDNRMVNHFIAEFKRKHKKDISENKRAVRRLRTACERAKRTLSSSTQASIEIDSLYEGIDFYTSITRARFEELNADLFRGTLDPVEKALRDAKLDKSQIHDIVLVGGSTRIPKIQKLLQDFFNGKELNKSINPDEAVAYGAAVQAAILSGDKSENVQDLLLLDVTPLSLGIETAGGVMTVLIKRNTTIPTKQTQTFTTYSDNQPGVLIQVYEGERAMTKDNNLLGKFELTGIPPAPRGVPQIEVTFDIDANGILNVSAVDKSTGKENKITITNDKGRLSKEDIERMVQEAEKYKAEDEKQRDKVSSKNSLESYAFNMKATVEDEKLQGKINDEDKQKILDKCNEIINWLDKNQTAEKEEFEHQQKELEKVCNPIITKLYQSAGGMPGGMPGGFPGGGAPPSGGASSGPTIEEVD

O=C1C=C2CC3(O)CCc4c(ccc(O)c4O)C3=C2C=C1O (configuration not stated)
IC50 [1]: > 100 µM (not active) | IC50 [2]: 34.2 µM (active)

COc1ccc(OCC(=O)Nc2ccc3c(c2)C(=O)NC3=O)cc1
IC50 [3]: > 43.8 µM (not active) | IC50 [4]: > 43.8 µM (not active)

Cc1c(C(=O)N(C)C)sc2[nH]c(-c3ccccn3)nc(=O)c12
EC50 [5]: 63.6 µM (not active) | IC50 (Nonstructural protein 1): 13.1 µM (active)

COc1ccc(Oc2c(/C=N/O)cnn(-c3ccc(C(C)C)cc3)c2=O)cc1
IC50 [6]: > 20 µM (inactive)
